Experimental data reported in publication PMC12977469, “Ligand binding drives proteolysis of the SmcR master transcription factor and controls quorum sensing-state transitions in Vibrio species” (mBio, 2026).

Target: T1, SmcR (Vibrio vulnificus, UniProt Q9L8G8)
T1 construct: full-length, His-tagged SmcR (homodimer); residues 1–15 not modeled in the crystal structure
Assay: X-ray crystal structure ([…] Å) and isothermal titration calorimetry with purified protein; SAXS
Format: binding

T1 sequence (Q9L8G8 entry or part of it): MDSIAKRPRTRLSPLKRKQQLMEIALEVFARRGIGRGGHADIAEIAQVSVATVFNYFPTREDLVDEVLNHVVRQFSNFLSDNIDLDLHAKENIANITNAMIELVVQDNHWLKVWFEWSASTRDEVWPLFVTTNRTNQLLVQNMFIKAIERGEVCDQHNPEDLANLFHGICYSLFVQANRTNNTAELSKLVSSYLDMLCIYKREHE

O=S(=O)(c1cccs1)n1ccc(-c2ccccc2)n1 [PTSP, 3-phenyl-1-(thiophen-2-ylsulfonyl)-1H-pyrazole]
Kd: ~1000 nM
